In patent publication US12221419B2, “Abietanes and methods of making and using the same” (Florida State University Research Foundation, Incorporated., priority 2022, dated 2025):

Columns and labels:
glioblastoma cells = assay: activity in glioblastoma cell culture (3D 'tumor' cell growth, FIG. 6); format: cell-based; settings: 3D 'tumor' cells, comparator alendronate
From the text: With entry to fully synthetic abietanes in hand, we explored the activity of taxodione (FL-1) and several synthetic analogs (FL-2 and FL-3) in glioblastoma cell culture (FIG. 6). […] Nevertheless, it is clear that a synthetic entry to bioactive molecules that inhibit glioblastoma cell growth has been established. This is a particularly important application because glioblastoma is an invasive brain cancer with a 5-year mean survival rate of only 5.5%. There are few effective treatments beyond surgery and ionizing radiation. Thus, new therapy modalities are urgently needed.

[1] = target: T1, farnesyl diphosphate synthase (Homo sapiens, UniProt P14324); settings: statement from cited literature (ref. 28); cited from earlier work
T1 sequence (P14324 1-419): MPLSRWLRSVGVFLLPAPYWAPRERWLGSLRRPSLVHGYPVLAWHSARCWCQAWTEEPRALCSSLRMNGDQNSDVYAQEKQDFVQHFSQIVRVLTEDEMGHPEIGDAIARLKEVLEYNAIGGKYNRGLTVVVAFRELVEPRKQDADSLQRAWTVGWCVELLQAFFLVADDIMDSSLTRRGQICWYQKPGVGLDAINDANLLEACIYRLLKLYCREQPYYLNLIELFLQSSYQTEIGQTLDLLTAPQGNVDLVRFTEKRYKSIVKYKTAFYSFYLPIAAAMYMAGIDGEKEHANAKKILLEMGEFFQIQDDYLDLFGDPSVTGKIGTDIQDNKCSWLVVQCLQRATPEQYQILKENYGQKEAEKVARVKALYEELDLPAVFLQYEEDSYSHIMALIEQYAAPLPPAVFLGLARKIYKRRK

CC(C)C1=CC2=CC(=O)[C@H]3C(C)(C)CCC[C@]3(C)C2=C(O)C1=O (racemic) [FL-1, (±)-taxodione]
arresting 3D 'tumor' cell growth / inhibiting glioblastoma cell growth (glioblastoma cells): superior to alendronate
inhibitor of farnesyl diphosphate synthase [1]: inhibitor of farnesyl diphosphate synthase
